The target of one assay is PRMT5 MTA (Homo sapiens (Human), UniProt O14744). Nature of the assay: PRMT5 inhibitory activity assay in vitro, enzyme solution with MTA ([3H]-SAM Flashplate). Format: biochemical. Particulars: MTA 2.0 um; read-out: Enzyme activity inhibition rate PRMT5 MTA (2.0 um) IC50 (nm). The text has this:
Biological Test Example 1 PRMT5 Inhibitory Activity Assay In Vitro
PRMT5 (Active Motiv, catalog number 31921), [^3H]—SAM (Perkin Elmer, catalog number NET155V001MC), SAM (Sigma, catalog number A7007), MTA (Sigma, catalog number D5011), SAH (Sigma, catalog number A9384), 384-well plate (Perkin Elmer, catalog number 6007299), Echo 550 (manufacturer: Labcyte, model: Echo 550), 384-well Flashplate (manufacturer: Perkin Elmer, model: SMP410A001PK)
• (1) 1× Assay buffer (modified Tris buffer) was configured. • (2) Dilute compound: the compound was dissolved in 100% DMSO and the compound solution was added to a 384-well plate using Echo 550. • (3) Configure enzyme solution: PRMT5 was added to 1× assay buffer to prepare enzyme solution 1; PRMT5 and MTA was added to 1× assay buffer to prepare enzyme solution 2. • (4) Configure substrate solution: peptide segments and [3H]—SAM was added to 1× assay buffer. • (5) 15 μL of enzyme solution was added to the 384-well plate, and 15 μL of 1× assay buffer was added to the negative control well, and incubated at room temperature for 30 minutes. • (6) 15 μL of substrate solution was added to each well, and incubated at room temperature for 90 minutes. • (7) Configure termination reaction solution: pre-cooled SAM was added to 1× assay buffer. • (8) 10 μL of termination reaction solution was added to each well to terminate the reaction. • (9) 25 μL/well of the mixed solution was transferred to Flashplate and incubated for 1 hour at room temperature. • (10) the Flashplate three was washed times with dH2O+0.1% Tween-20 solution. • (11) the radiometric values was readed with Microbeta.
• (1) The raw data were converted to % inhibition according to Equation 1.
%inhibition=(Max−Signal)/(Max−Min)*100 Equation 1: • (2) the % inhibition data were entered into XL-Fit Equation 2 to obtain IC50 value:
Y=Bottom+(Top−Bottom)/(1+(IC50/X)[…]) Equation 2: • wherein, Y is the % inhibition, and X is the concentration of the compound.

Another assay deals with HCT116 MTAP WT cells. Nature of the assay: Proliferation inhibition of HCT116 cells in vitro (CellTiter Glo, 6 days). It counts as cell-based. Particulars: Homo sapiens, HCT-116, 144 h, read-out: Cell proliferation inhibition rate HCT116 MTAP WT IC50 (nm). (In general: Cellular ATP, detected with luciferase, serves as a proxy for viable cell number.)
Assay [1] deals with HCT116-MTAP-KO (MTAP null) cells. Nature of the assay: Proliferation inhibition of HCT116 MTAP-KO cells in vitro (CellTiter Glo, 6 days). It counts as cell-based. Particulars: 144 h, read-out: Cell proliferation inhibition rate HCT116-MTAP null IC50 (nm).

Data on five molecules can be found in patent US20240376126A1, “PRMT5 INHIBITOR AND THE USE THEREOF” (CYTOSINLAB THERAPEUTICS CO., LTD., priority 2022, published 2024).

Chain of PRMT5 MTA (O14744 whole entry, looked up): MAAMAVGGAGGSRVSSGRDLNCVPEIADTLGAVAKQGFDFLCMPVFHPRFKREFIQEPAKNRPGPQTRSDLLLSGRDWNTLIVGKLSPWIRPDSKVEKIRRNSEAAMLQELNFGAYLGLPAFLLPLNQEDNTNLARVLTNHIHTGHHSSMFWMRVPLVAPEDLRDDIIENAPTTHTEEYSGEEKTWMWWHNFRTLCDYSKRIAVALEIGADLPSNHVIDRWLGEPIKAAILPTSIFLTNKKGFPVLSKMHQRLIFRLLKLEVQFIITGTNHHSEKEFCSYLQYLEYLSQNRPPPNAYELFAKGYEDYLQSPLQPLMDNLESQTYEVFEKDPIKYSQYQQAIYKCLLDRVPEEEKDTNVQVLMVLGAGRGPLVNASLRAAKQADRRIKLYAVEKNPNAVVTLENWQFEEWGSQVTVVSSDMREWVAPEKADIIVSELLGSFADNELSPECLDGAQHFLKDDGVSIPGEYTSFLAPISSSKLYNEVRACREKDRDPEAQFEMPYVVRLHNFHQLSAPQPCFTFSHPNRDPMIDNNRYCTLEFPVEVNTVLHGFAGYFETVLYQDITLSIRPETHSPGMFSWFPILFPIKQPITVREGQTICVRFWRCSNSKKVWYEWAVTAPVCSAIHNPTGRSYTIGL
Chain of PRMT5 MTA (Q9BQA1 whole entry partner, looked up): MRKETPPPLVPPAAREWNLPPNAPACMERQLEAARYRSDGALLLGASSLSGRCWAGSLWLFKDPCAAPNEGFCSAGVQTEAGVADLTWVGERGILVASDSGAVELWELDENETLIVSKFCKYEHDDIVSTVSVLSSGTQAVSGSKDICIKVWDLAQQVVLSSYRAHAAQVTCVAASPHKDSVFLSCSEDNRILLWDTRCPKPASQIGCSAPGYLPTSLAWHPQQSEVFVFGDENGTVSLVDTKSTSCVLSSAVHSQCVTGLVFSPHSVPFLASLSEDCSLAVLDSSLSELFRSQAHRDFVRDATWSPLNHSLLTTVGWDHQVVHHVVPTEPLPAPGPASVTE

Regarding `CCN(Cc1cn2ccccc2n1)C(=O)c1cc2c(cc1F)nc(N)c1cnn(C)c12` [Example 2], the figures for the IC50 (at PRMT5 MTA; with HCT116 MTAP WT cells; in assay [1]) were 3 nM, 1000 to 10000 nM and below 100 nM, respectively.

On to `CC(C)CN(Cc1cn2cc(C(F)(F)F)ccc2n1)C(=O)c1ccc2nc(N)c3cnn(C)c3c2c1` [Example 4], for which the figures for the IC50 (at PRMT5 MTA; with HCT116 MTAP WT cells; in assay [1]) were 1.7 nM, 1000 to 10000 nM and below 100 nM, respectively.

As for `COCC(C1CC1)N(Cc1nc2ccccc2[nH]1)C(=O)c1ccc2nc(N)c(C)cc2c1` (stereo not drawn) [Example 127], the results for the IC50 (on PRMT5 MTA; in the assay with HCT116 MTAP WT cells; in assay [1]) were 3.7 nM, 1000 to 10000 nM and below 100 nM, respectively.

Turning to `CC(C)CN(Cc1nc2ccc(C(F)(F)F)cc2[nH]1)C(=O)c1ccc2nc(N)c3cnn(C)c3c2c1` [Example 132], the IC50 at PRMT5 MTA is 4.4 nM; in the assay on HCT116 MTAP WT cells, 1000 to 10000 nM; in assay [1], below 100 nM.

Turning to `COCC(C1CC1)N(Cc1nc2ccccc2s1)C(=O)c1ccc2nc(N)c3c(c2c1)CCC3` (stereo not drawn) [Example 147], the figures for the IC50 (at PRMT5 MTA; in the assay on HCT116 MTAP WT cells; in assay [1]) were 2.9 nM, 1000 to 10000 nM and 100 to 1000 nM, respectively.
